Data published in patent US9310660B2, “Organic compound and electrochromic element including the same” (CANON KABUSHIKI KAISHA, priority 2013, dated 2016).

Legend:
[1] = Solubility in propylene carbonate; format: physicochemical; settings: organic solvent or mixture
Description: The solubilities of three compounds: Compound A-1 prepared in Example 1, Compound B-1 prepared in Example 2, and pyridinium salt precursor Ref-1 of Compound A-1 as a comparative example, in propylene carbonate, a solvent for an EC element, were measured.
Compound Ref-1 as a comparative example has a structure in which the pyridinium salt moiety of Compound A-1 is replaced by a non-ionized structure, a pyridyl group. The molecular structure is shown below.

[2] = Ultraviolet and visible absorption spectrum in chloroform; format: physicochemical; settings: dissolved in chloroform, neutralized state
Description: The resulting exemplified compound A-1 was dissolved in chloroform. The absorption spectrum of the solution was measured with an ultraviolet and visible spectrometer (V-560, manufactured by JASCO Corp.) and is shown in FIG. 2.
The resulting exemplified compound B-1 was dissolved in chloroform. The absorption spectrum of the solution was measured as in Example 1.

SMILES	solubility [1] [mM]	maximum absorption peak λmax [2] [nm]
Cc1cc(C)c(-c2cc3sc4cc(-c5cccc(-c6ccncc6)c5)sc4c3s2)c(C)c1 [Ref-1, reference compound]	≤ 8	–
Cc1c(-c2cccc(-c3cc[n+](Cc4ccccc4)cc3)c2)sc(-c2cccc(-c3cc[n+](Cc4ccccc4)cc3)c2)c1C [Compound B-1]	≥ 75	311.5
Cc1cc(C)c(-c2cc3sc4cc(-c5cccc(-c6cc[n+](Cc7ccccc7)cc6)c5)sc4c3s2)c(C)c1 [Compound A-1]	≥ 300	355.5
